Results from patent publication US7449492B2, “Therapeutic agents—I” (priority 2000, dated 2008).

What was measured:
[1] = test system: peripheral blood mononuclear cells (PBMCs); test: Phagocytosis with fluorescent beads; format: cell-based; details: whole heparinized blood, 30 min at 37° C.
Experimental: Phagocytosis by peripheral blood mononuclear cells (PBMCs) was assayed (Steinkamp et al., 1982) using 1 μm Fluoresbrite™ yellow-green fluorescent latex spheres (Polysciences, Inc., Warrington, Pa.). A sample of whole, heparinized blood was treated with drug and 5×10E7 fluorescent latex beads in 10 μL of PBS added per mL of suspension. Cells were incubated and maintained in suspension for 30 min by means of a shaker platform at 37° C. The stimulated and non-stimulated samples were then lysed to isolate PBMCs. The PBMCs were run on the flow cytometer measuring FITC (excitation at 488 nm, emission at 525±20 nm), gated for fluorescence (phagocytosed spheres) and light scatter (cell size).

[2] = test system: MM96L human melanoma cells; test: Leukocyte killing with drug present, [3H]-thymidine labelling; format: cell-based; details: 60 ng/mL with leukocytes, 48 hr; 100:1 ratio of effector:target cells
Experimental: (§1) Leukocytes obtained by lysis of human peripheral blood were added to 5000 MM96L human melanoma cells or 7000 neonatal foreskin fibroblasts per microtitre well at effector: target ratios of 1000, 100 and 10:1. Ing9 (60 ng/mL) was added and after 48 hr incubation the cultures were washed and labelled with [3H]-thymidine for 2 hr. […] Untreated leukocytes had no effect on cell survival.

[3] = test system: neonatal foreskin fibroblasts; test: as above; format: cell-based, human; details: 60 ng/mL with leukocytes, 48 hr; 100:1 ratio of effector:target cells
Experimental: as §1

[4] = test system: MM96L human melanoma cells; test: Killing by untreated leukocytes of drug-pretreated target cells; format: cell-based; details: target cells treated with 60 ng/mL for 20 hr and washed before leukocytes; 100:1 ratio of effector:target cells
Experimental: as §1, with “The target cells had been treated with 60 ng/mL PEP008 for 20 hr beforehand,” for “Ing9 (60 ng/mL) was added”, “washed and the medium replaced before the leukocytes were added. After” for “after”, “incubation with the leukocytes” for “incubation”

[5] = test system: neonatal foreskin fibroblasts; test: as above; format: cell-based, human; details: target cells treated with 60 ng/mL for 20 hr and washed before leukocytes; 100:1 ratio of effector:target cells
Experimental: as §1, with “The target cells had been treated with 60 ng/mL PEP008 for 20 hr beforehand,” for “Ing9 (60 ng/mL) was added”, “washed and the medium replaced before the leukocytes were added. After” for “after”, “incubation with the leukocytes” for “incubation”

## C/C=C(/C)C(=O)O[C@H]1C(C)=C[C@]23C(=O)[C@@H](C=C(COC(C)=O)[C@@H](O)[C@]12O)[C@H]1[C@@H](C[C@H]3C)C1(C)C [PEP008, 20-O-acetyl-ingenol-3-angelate]
[1]
  phagocytosis of fluorescent latex spheres in PBMCs: stimulate phagocytosis
[2]
  survival of melanoma cells: 9%
[3]
  survival of normal fibroblasts: 100%
[4]
  survival of melanoma cells: 12%
[5]
  survival of normal fibroblasts: 100%
